Experiments:
[1] = refractive index (Na D-line) (dimensionless); settings: 298.15 K; 101.33 kPa; Liquid; Standard Abbe refractometry
[2] = 101.33 kPa, Liquid; for speed of sound: Sing-around technique in a fixed-path interferometer; for mass density: Vibrating tube method
[3] = mn = molality of the nth substance listed, in mol/kg; settings: 298.15 K, 101.33 kPa, Liquid; for speed of sound: Sing-around technique in a fixed-path interferometer; for mass density: Vibrating tube method
[4] = refractive index (Na D-line) (dimensionless); mn = molality of the nth substance listed, in mol/kg; settings: 298.15 K, 101.33 kPa, Liquid, Standard Abbe refractometry

CCOS(=O)(=O)[O-].CCn1cc[n+](C)c1 [1-ethyl-3-methylimidazolium ethyl sulfate]
Settings	refractive index
[1]	1.4784

[2], 298.15 K
Settings	mass density [kg/m3]	speed of sound [m/s]
–	1237.72	1680.2

CCOS(=O)(=O)[O-].CCn1cc[n+](C)c1 [1-ethyl-3-methylimidazolium ethyl sulfate] + C1CCCCC1
m1 = 0.0999
Settings	mass density [kg/m3]	refractive index	speed of sound [m/s]
[3]	773.884	–	1254.3
[4]	–	1.4237	–

CCCCCCn1cc[n+](C)c1.[Br-] [3-hexyl-1-methyl-1H-imidazolium bromide]
Settings	refractive index
[1]	1.5308

[2], 298.15 K
Settings	mass density [kg/m3]	speed of sound [m/s]
–	1223.81	1587.5

CCCCCCn1cc[n+](C)c1.[Br-] [3-hexyl-1-methyl-1H-imidazolium bromide] + C1CCCCC1
m1 = 0.0999
Settings	mass density [kg/m3]	refractive index	speed of sound [m/s]
[3]	773.932	–	1254.3
[4]	–	1.4236	–

CCCCCCn1cc[n+](C)c1.[Br-] [3-hexyl-1-methyl-1H-imidazolium bromide] + CCCCCC
m1 = 0.1
Settings	mass density [kg/m3]	refractive index	speed of sound [m/s]
[3]	655.221	–	1077.4
[4]	–	1.3737	–

C1CCCCC1 [cyclohexane]
Settings	refractive index
[1]	1.4235

[2], 298.15 K
Settings	mass density [kg/m3]	speed of sound [m/s]
–	773.87	1253.7

C1CCCCC1 [cyclohexane] + c1ccsc1
m2 = 0
Settings	mass density [kg/m3]	refractive index	speed of sound [m/s]
[3]	773.87	–	1253.7
[4]	–	1.4235	–

CCCCCC [hexane]
Settings	refractive index
[1]	1.3722

[2], 298.15 K
Settings	mass density [kg/m3]	speed of sound [m/s]
–	655.175	1077.2

CCCCCC [hexane] + c1ccsc1
m2 = 0
Settings	mass density [kg/m3]	refractive index	speed of sound [m/s]
[3]	655.175	–	1077.2
[4]	–	1.3722	–

c1ccsc1 [thiophene]
Settings	refractive index
[1]	1.5252

[2]
Settings	mass density [kg/m3]	speed of sound [m/s]
298.15 K	1058.56	1259
303.15 K	–	1258.7

c1ccsc1 [thiophene] + C1CCCCC1
Settings	mass density, [3] [kg/m3]	refractive index, [4]	speed of sound, [3] [m/s]
m1 = 0.0404	774.512	1.424	1253.4
m1 = 0.0503	774.668	1.4241	1253.4
m1 = 0.0602	774.824	1.4242	1253.3
m1 = 0.0703	774.983	1.4243	1253.2
m1 = 0.0803	775.14	1.4244	1253.2
m1 = 0.0902	775.295	1.4245	1253.1
m1 = 0.1003	775.452	1.4246	1253
m1 = 0.1103	775.608	1.4247	1252.9
m1 = 0.1203	775.764	1.4248	1252.9
m1 = 0.1303	775.917	1.4249	1252.8
m1 = 0.1402	776.075	1.425	1252.7
m1 = 0.1503	776.227	1.4251	1252.6
m1 = 0.1603	776.38	1.4252	1252.6
m1 = 0.1702	776.53	1.4253	1252.5
m1 = 0.1802	776.684	1.4254	1252.4

c1ccsc1 [thiophene] + CCCCCC
Settings	mass density, [3] [kg/m3]	refractive index, [4]	speed of sound, [3] [m/s]
m1 = 0.0303	655.82	1.3725	1077.3
m1 = 0.0354	655.927	1.3726	1077.3
m1 = 0.0403	656.03	1.3727	1077.3
m1 = 0.0453	656.133	1.3728	1077.3
m1 = 0.0504	656.239	1.3729	1077.4
m1 = 0.0554	656.34	1.373	1077.4
m1 = 0.0603	656.441	1.3731	1077.4
m1 = 0.0654	656.545	1.3732	1077.4
m1 = 0.0704	656.646	1.3733	1077.5
m1 = 0.0753	656.745	1.3734	1077.5
m1 = 0.0804	656.847	1.3735	1077.5
m1 = 0.0852	656.945	1.3736	1077.6
m1 = 0.0903	657.046	1.3737	1077.6
m1 = 0.0954	657.146	1.3738	1077.6
m1 = 0.1004	657.243	1.3739	1077.7
m1 = 0.1053	657.342	1.374	1077.7
m1 = 0.1104	657.441	1.3741	1077.8

Reference: the NIST ThermoML archive (doi:10.1016/j.jct.2015.03.004)
